Reference: ChEMBL document CHEMBL2202978, “Synthesis and antiviral activity of novel HCV NS3 protease inhibitors with P4 capping groups” (Bioorg Med Chem Lett, 2012)

Assays:
Hepatitis C virus [1] = experiment: Antiviral activity against HCV subtype 1b expressing NS3/4A R115K mutant protease infected in ET cells after 72 hrs; type: functional, organism-based, Hepacivirus hominis; conditions: genotype 1b
Hepatitis C virus [2] = experiment: Antiviral activity against HCV subtype 1b expressing NS3/4A D168V mutant protease infected in ET cells after 72 hrs; type: functional, organism-based, Hepacivirus hominis; conditions: genotype 1b
Hepatitis C virus [3] = experiment: Antiviral activity against HCV subtype 1b expressing NS3/4A D168A mutant protease infected in ET cells after 72 hrs; type: functional, organism-based, Hepacivirus hominis; conditions: genotype 1b
Hepatitis C virus [4] = experiment: Antiviral activity against HCV subtype 1b expressing NS3/4A A156V mutant protease infected in ET cells after 72 hrs; type: functional, organism-based, Hepacivirus hominis; conditions: genotype 1b
Hepatitis C virus [5] = experiment: Antiviral activity against HCV subtype 1b expressing NS3/4A A156T mutant protease infected in ET cells after 72 hrs; type: functional, organism-based, Hepacivirus hominis; conditions: genotype 1b
Hepatitis C virus [6] = experiment: Antiviral activity against HCV subtype 1b expressing NS3/4A A156S mutant protease infected in ET cells after 72 hrs; type: functional, organism-based, Hepacivirus hominis; conditions: genotype 1b
Hepatitis C virus [7] = experiment: Antiviral activity against HCV subtype 1b expressing wild type NS3/4A protease infected in ET cells after 72 hrs; type: functional, organism-based, Hepacivirus hominis; conditions: genotype 1b
Hepatitis C virus [8] = experiment: Antiviral activity against HCV subtype 1b infected in human hepatoma cells; type: functional, organism-based, Hepacivirus hominis; conditions: genotype 1b
Hepatitis C virus [9] = experiment: Antiviral activity against HCV subtype 1a infected in human hepatoma cells; type: functional, organism-based, Hepacivirus hominis
[10] = Inhibition of HCV subtype 1a NS3/4A protease (Ac-DE-Dap(QXL520)-EE-Abu-psi-[COO]-ASC(5-FAMsp)-NH2 as substrate by FRET analysis; design: species or system Hepatitis C virus subtype 1a
[11] = Terminal half life in Sprague-Dawley rat at 6.15 mg/kg, po and 1.23 mg/kg, iv; type: ADME, organism-based; conditions: in vivo, read-out: beta t1/2 (converted)
[12] = Oral bioavailability in Sprague-Dawley rat at 6.15 mg/kg; type: ADME, organism-based; conditions: in vivo
[13] = Drug absorption in Sprague-Dawley rat portal vein at 6.15 mg/kg, po; type: ADME, organism-based; design: dose 6.15 mg/kg, route oral; conditions: read-out: Drug absorption
[14] = AUC (0 to infinity) in Sprague-Dawley rat at 6.15 mg/kg, po; type: ADME, organism-based; design: time infinity, dose 6.15 mg/kg, route oral; conditions: plasma
[15] = AUC in Sprague-Dawley rat at 1.23 mg/kg, iv; type: ADME, organism-based; design: dose 1.23 mg/kg, route intravenous; conditions: plasma
[16] = Clearance in Sprague-Dawley rat at 1.23 mg/kg, iv; type: ADME, organism-based; design: dose 1.23 mg/kg, route intravenous; conditions: in vivo
[17] = Terminal half life in Sprague-Dawley rat at 5 mg/kg, po and 1 mg/kg, iv; type: ADME, organism-based; conditions: in vivo, read-out: beta t1/2 (converted)
[18] = Oral bioavailability in Sprague-Dawley rat at 5 mg/kg; type: ADME, organism-based; conditions: in vivo
[19] = Drug absorption in Sprague-Dawley rat portal vein at 5 mg/kg, po; type: ADME, organism-based; design: dose 5 mg/kg, route oral; conditions: read-out: Drug absorption
[20] = AUC (0 to infinity) in Sprague-Dawley rat at 5 mg/kg, po; type: ADME, organism-based; design: time infinity, dose 5 mg/kg, route oral; conditions: plasma
[21] = AUC in Sprague-Dawley rat at 1 mg/kg, iv; type: ADME, organism-based; design: dose 1 mg/kg, route intravenous; conditions: plasma
[22] = Clearance in Sprague-Dawley rat at 1 mg/kg, iv; type: ADME, organism-based; design: dose 1 mg/kg, route intravenous; conditions: in vivo

Row | Compound | EC50 (Hepatitis C virus [1]) | EC50 (Hepatitis C virus [2]) | EC50 (Hepatitis C virus [3]) | EC50 (Hepatitis C virus [4]) | EC50 (Hepatitis C virus [5]) | EC50 (Hepatitis C virus [6]) | EC50 (Hepatitis C virus [7]) | EC50 (Hepatitis C virus [8]) | EC50 (Hepatitis C virus [9]) | IC50 [10] | further results
1 | COc1ccc2c(O[C@@H]3C[C@H]4C(=O)N[C@]5(C(=O)NS(=O)(=O)C6CC6)C[C@H]5/C=C\CCCCC[C@H](N)C(=O)N4C3)cc(-c3nc(C4CC4)cs3)nc2c1C | 155 nM | 1660 nM | 229 nM | 41 nM | 20 nM | 1.2 nM | 1 nM | 1 nM | 0.7 nM | 1.3 nM | 
2 | COc1ccc2c(O[C@@H]3C[C@H]4C(=O)N[C@]5(C(=O)NS(=O)(=O)C6CC6)C[C@H]5/C=C\CCCCC[C@H](NC(=O)C(=O)NC5CCCCC5)C(=O)N4C3)cc(-c3nc(C4CC4)cs3)nc2c1C |  |  |  |  |  |  |  | 0.5 nM | 0.5 nM | 6.3 nM | 
3 | COc1ccc2c(O[C@@H]3C[C@H]4C(=O)N[C@]5(C(=O)NS(=O)(=O)C6CC6)C[C@H]5/C=C\CCCCC[C@H](NC(=O)OC(C)(C)C)C(=O)N4C3)cc(-c3nc(C4CC4)cs3)nc2c1C | 6 nM |  |  | 1.5 nM | 1.9 nM | 0.08 nM | 0.02 nM | 0.4 nM | 0.4 nM | 6.3 nM | half-life [11]: 1.63 h; bioavailability [12]: 10%; Fa [13]: 14.5%; AUC(0-inf) [14]: 201 ng·h/mL; AUC [15]: 381 ng·h/mL; clearance [16]: 45.6 mL/min/kg
4 | COc1ccc2c(O[C@@H]3C[C@H]4C(=O)N[C@]5(C(=O)NS(=O)(=O)C6CC6)C[C@H]5/C=C\CCCCC[C@H](NC(=O)C5(OC)CC5)C(=O)N4C3)cc(-c3nc(C4CC4)cs3)nc2c1C |  |  |  |  |  |  |  | 0.2 nM | 0.2 nM | 1.6 nM | 
5 | COc1ccc2c(O[C@@H]3C[C@H]4C(=O)N[C@]5(C(=O)NS(=O)(=O)C6CC6)C[C@H]5/C=C\CCCCC[C@H](NC(=O)C(=O)N5CCCCC5)C(=O)N4C3)cc(-c3nc(C4CC4)cs3)nc2c1C | 14 nM | 151 nM | 49 nM | 6.2 nM | 5.5 nM | 0.1 nM | 0.02 nM | 0.4 nM | 0.5 nM | 1 nM | 
6 | COc1ccc2c(O[C@@H]3C[C@H]4C(=O)N[C@]5(C(=O)NS(=O)(=O)C6CC6)C[C@H]5/C=C\CCCCC[C@H](NC(=O)C(C)=O)C(=O)N4C3)cc(-c3nc(C4CC4)cs3)nc2c1C |  |  |  |  |  |  |  | 0.6 nM | 0.5 nM | 0.8 nM | 
7 | COc1ccc2c(O[C@@H]3C[C@H]4C(=O)N[C@]5(C(=O)NS(=O)(=O)C6CC6)C[C@H]5/C=C\CCCCC[C@H](NC(=O)C(=O)NC(C)(C)C)C(=O)N4C3)cc(-c3nc(C4CC4)cs3)nc2c1C |  |  |  |  |  |  |  | 0.7 nM | 0.6 nM | 4 nM | 
8 | COc1ccc2c(O[C@@H]3C[C@H]4C(=O)N[C@]5(C(=O)NS(=O)(=O)C6CC6)C[C@H]5/C=C\CCCCC[C@H](N5CCOC5=O)C(=O)N4C3)cc(-c3nc(C4CC4)cs3)nc2c1C | 977 nM | 3020 nM | 1820 nM | 151 nM | 107 nM | 3.5 nM | 27 nM | 14 nM | 17 nM | 2.5 nM | 
9 | COc1ccc2c(O[C@@H]3C[C@H]4C(=O)N[C@]5(C(=O)NS(=O)(=O)C6CC6)C[C@H]5/C=C\CCCCC[C@H](NC(=O)C(=O)N5CCCC5)C(=O)N4C3)cc(-c3nc(C4CC4)cs3)nc2c1C |  |  |  |  |  |  |  | 0.4 nM | 0.4 nM | 1.3 nM | 
10 | COc1ccc2c(O[C@@H]3C[C@H]4C(=O)N[C@]5(C(=O)NS(=O)(=O)C6CC6)C[C@H]5/C=C\CCCCN(C)C(=O)[C@@H]4C3)cc(-c3nc(C(C)C)cs3)nc2c1C [SIMEPREVIR] | 56 nM | 140 nM | 149 nM | 344 nM | 86 nM | 0.3 nM | 1 nM | 1 nM | 2 nM | 10 nM | 
11 | CC(C)(C)OC(=O)N[C@H]1CCCCC/C=C\[C@@H]2C[C@@]2(C(=O)NS(=O)(=O)C2CC2)NC(=O)[C@@H]2C[C@@H](OC(=O)N3Cc4cccc(F)c4C3)CN2C1=O [DANOPREVIR] | 82 nM | 26 nM | 39 nM | 8 nM | 10 nM | 2 nM | 0.2 nM |  |  | 0.7 nM | 
12 | CCC[C@H](NC(=O)[C@@H]1[C@H]2CCC[C@H]2CN1C(=O)[C@@H](NC(=O)[C@@H](NC(=O)c1cnccn1)C1CCCCC1)C(C)(C)C)C(=O)C(=O)NC1CC1 [TELAPREVIR] | 1780 nM | 207 nM | 638 nM | 1960 nM | 1140 nM | 883 nM | 34 nM |  |  | 500 nM | 
13 | CCN(CC)C(=O)N[C@H]1CCCCC/C=C\[C@@H]2C[C@@]2(C(=O)NS(=O)(=O)C2CC2)NC(=O)[C@@H]2C[C@@H](Oc3cc(-c4nc(C5CC5)cs4)nc4c(C)c(OC)ccc34)CN2C1=O | 4 nM | 51 nM | 19 nM | 5.5 nM | 1 nM | 0.1 nM | 0.03 nM | 0.2 nM | 0.3 nM | 0.6 nM | half-life [17]: 1.4 h; bioavailability [18]: 7.4%; Fa [19]: 19%; AUC(0-inf) [20]: 48.7 ng·h/mL; AUC [21]: 127 ng·h/mL; clearance [22]: 152 mL/min/kg
14 | COc1ccc2c(O[C@@H]3C[C@H]4C(=O)N[C@]5(C(=O)NS(=O)(=O)C6CC6)C[C@H]5/C=C\CCCCC[C@H](N/C(=N\C#N)NC(C)(C)C)C(=O)N4C3)cc(-c3nc(C4CC4)cs3)nc2c1C | 123 nM | 832 nM | 331 nM | 78 nM | 27 nM | 0.5 nM | 0.3 nM | 0.7 nM | 2.5 nM | 2.5 nM | 
15 | COc1ccc2c(O[C@@H]3C[C@H]4C(=O)N[C@]5(C(=O)NS(=O)(=O)C6CC6)C[C@H]5/C=C\CCCCC[C@H](NC(=O)C5(OC)CCCC5)C(=O)N4C3)cc(-c3nc(C4CC4)cs3)nc2c1C | 25 nM | 234 nM | 50 nM | 49 nM | 13 nM | 0.09 nM | 0.05 nM | 0.3 nM | 0.3 nM | 4 nM | 
16 | COc1ccc2c(O[C@@H]3C[C@H]4C(=O)N[C@]5(C(=O)NS(=O)(=O)C6CC6)C[C@H]5/C=C\CCCCC[C@H](NC(=O)C5(OC)CCC5)C(=O)N4C3)cc(-c3nc(C4CC4)cs3)nc2c1C | 44 nM | 263 nM | 91 nM | 85 nM | 20 nM | 0.3 nM | 0.04 nM | 0.1 nM | 0.2 nM | 2 nM | half-life [17]: 0.99 h; bioavailability [18]: 8.2%; Fa [19]: 16.5%; AUC(0-inf) [20]: 49.1 ng·h/mL; AUC [21]: 117 ng·h/mL; clearance [22]: 144 mL/min/kg
17 | COc1ccc2c(O[C@@H]3C[C@H]4C(=O)N[C@]5(C(=O)NS(=O)(=O)C6CC6)C[C@H]5/C=C\CCCCC[C@H](N5CCCC5=O)C(=O)N4C3)cc(-c3nc(C4CC4)cs3)nc2c1C | 794 nM | 3980 nM | 1350 nM | 646 nM | 219 nM | 6.2 nM | 8.7 nM | 24 nM | 42 nM | 20 nM | 
18 | COc1ccc2c(O[C@@H]3C[C@H]4C(=O)N[C@]5(C(=O)NS(=O)(=O)C6CC6)C[C@H]5/C=C\CCCCC[C@H](NC(=O)N(C)C)C(=O)N4C3)cc(-c3nc(C4CC4)cs3)nc2c1C | 0.5 nM | 27 nM | 14 nM | 2 nM | 0.5 nM | 0.05 nM | 0.03 nM | 0.2 nM | 0.3 nM | 0.5 nM | 
19 | CCOC(=O)C(=O)N[C@H]1CCCCC/C=C\[C@@H]2C[C@@]2(C(=O)NS(=O)(=O)C2CC2)NC(=O)[C@@H]2C[C@@H](Oc3cc(-c4nc(C5CC5)cs4)nc4c(C)c(OC)ccc34)CN2C1=O |  |  |  |  |  |  |  | 1.2 nM | 2.6 nM | 1 nM | 
